According to ChEMBL document CHEMBL3507680, “University of Dundee, Gates Library screen for HepG2 cell viability”:

Assay: Human HepG2 cell viability assay in 384 well format
Type: toxicity, cell-based
Parameters: dose 125 nL, time 70.5 hour; cytotoxicity at 70.5 h: concentration not given beside the values
Details: HepG2 cells, read-out: Inhibition

SMILES	cytotoxicity at 70.5 h [%]
CSCCCNC(=O)Nc1cccc(-c2nccn2C)c1	3.57
Cn1nc(C(=O)NC2(c3ccccc3)CCC2)ccc1=O	1.95
CC(=O)NCCc1cc2nc(-c3ccncc3)ccn2n1	-4.37
CCOC[C@@]12CCC[C@@H]1CN(C(=O)c1ccc(OC)cc1)C2	4.26
NS(=O)(=O)c1cccnc1Nc1cccc(Cl)c1Cl	3.67
COCCCNC(=O)CN1CCCC1c1c(C)nn(C)c1Cl (configuration not stated)	27.1
Cc1cc(C(=O)NC2CCN(C(=O)Nc3cccnc3)CC2)c(C)o1	-9.09
CCN(CC)CCn1cc(NC2CCN(C(C)(C)C)CC2)cn1	5.68
CN(C)C(=O)CN1CCC2(C1)CN(CC1CCOC1)C2 (configuration not stated)	11.8
CCS(=O)(=O)N(C)C1CCN(C(=O)c2ccc(Cl)cc2)CC1	-15.5
CS(=O)(=O)CCn1ccc(NC(=O)Cc2c[nH]c3ccccc23)n1	5.18
CN(C)C(=O)CN1CCC2(CCN(S(C)(=O)=O)CC2)C1=O	-0.161
COC(=O)Cn1c(=O)nc2n1C(=O)N(c1ccc(Cl)cc1)C2	8.74
Cc1cc(C)n(-c2cncc(N3CCN(C(=O)CN(C)C)CC3)n2)n1	-11.6
COc1ccc(CNCCc2cc(F)cc3c2OCOC3)cc1OC	2.03
O=C(c1ccc(S(=O)(=O)NCCc2ccccn2)cc1)N1CCCC1	-14.8
Cc1nnc2n1CCN(C(C(=O)N1CCCCC1)c1ccccc1)C2 (configuration not stated)	-1.38
CC1=N[C@@]2(CC[C@@H]3CN(S(=O)(=O)CC(C)C)C[C@@H]32)C(=O)N1C	-10.5
CCCN1CCCN(c2ccc(-n3ccc(C)n3)nn2)CC1	-7.57

SMILES	cytotoxicity at 70.5 h [%]
O=C(c1cnc(C2CC2)nc1)N1CCCC(c2nccs2)C1 (configuration not stated)	27.6
CC(C)NS(=O)(=O)c1ccccc1CNCc1cccc(O)c1	-3.47
CCOC1CCCN(C(=O)c2nn(-c3ccccc3F)cc2O)C1 (configuration not stated)	-3.95
COc1ccc2c(c1)C(=O)N(C)C1(CCN(CC3CC3)CC1)N2	3.49
Cc1nc(C2CCCN2C(=O)Cc2cccc(F)c2)nc(O)c1C (configuration not stated)	21.4
CCc1nc2n(n1)CC(NCc1noc(-c3ccc(C)cc3)n1)CC2 (configuration not stated)	0.731
CCc1nnc(Nc2cc(C)nc(C3CN(C(=O)C(C)C)CCO3)c2)s1 (configuration not stated)	9.87
O=C(Cc1csc(-c2ccco2)n1)N1CCN(CCO)CC1	5.35
COc1ccc(COCC(=O)N2CCC(c3nncn3C)CC2)cc1	-12.3
O=C(NCc1nncn1-c1ccccc1)C1CC(=O)N(CC2CC2)C1 (configuration not stated)	-18.1
Cc1ccccc1CS(=O)(=O)CC(=O)NC1CCCCNC1=O (configuration not stated)	-11.3
COC(=O)N1CCCCC1C(=O)N1CCC(c2ccncc2)CC1 (configuration not stated)	-3.09
COCc1nc(CN2CCOC(CNc3cccnn3)C2)cs1 (configuration not stated)	-11.6
CC(C)n1cc(C(=O)NCCc2cn3ccsc3n2)cn1	13.8
COCCN1CCC(CN(CC2CCCO2)C(=O)CCC(F)(F)F)CC1 (configuration not stated)	-2.11
CN1C(=O)CC(C(=O)O)C12CCN(Cc1ccc(F)c(Cl)c1)CC2 (configuration not stated)	0.558
O=C(NCCCNc1cccnc1)c1ccc2nccn2c1	-12.7
O=C(O)[C@@H]1CN(CC(=O)N2CCCCC2)C[C@H]1c1ccc(F)cc1	-2.52
O=C(c1cccs1)N1CCCC2(COCCN(c3cccnc3)C2)C1 (configuration not stated)	-6.3

SMILES	cytotoxicity at 70.5 h [%]
CN(C(=O)c1ccc(Cl)cn1)c1ccccc1S(C)(=O)=O	-5.72
O=C(c1cc(-c2cccnc2)[nH]n1)N1CCCC(c2cnccn2)C1 (configuration not stated)	12
O=C(COCCOc1ccccc1)NC1CCN(c2ncccn2)CC1	41.6
Cn1ccc(C(=O)N2CCC(Cc3cccc4cccnc34)C2)n1 (configuration not stated)	-5.77
COc1ccc(NC(=O)c2ccco2)c(N2CCN(C(C)=O)CC2)n1	-11.7
N#Cc1ccc(C(=O)O)nc1/C=C/c1cccc(Br)c1	-4.7
CC1CCC(NC(=O)c2nn(C)cc2Br)CC1 (configuration not stated)	-7.64
COC(=O)N1CCC(NC(=O)c2cc(S(N)(=O)=O)ccc2C)CC1	2.43
CCOCCNC(=O)[C@@H]1CCCN1c1nccc(Nc2ccccc2)n1	-1.64
CC(C)c1cc(CNC(=O)NCc2cccc(N3CC=CC3)c2)on1	-3.2
CCc1nsc(N2CCCN(C(=O)c3ccsc3)CC2)n1	14
CC(c1ccccc1)N1Cc2nc(N(C)C)ncc2C1=O (configuration not stated)	49
COc1cc(Cl)c(NC(=O)c2cc3c([nH]c2=O)CCCC3=O)cc1OC	-7.89
CN1CCC(c2nnc(CN3CCOCC3)n2C)CC1	-24.5
CCS(=O)(=O)CC(=O)NC(c1ccccc1)C1CCCCC1 (configuration not stated)	2.89
Cc1ncsc1C(=O)NCC1SCCc2ccccc21 (configuration not stated)	6.22
Cc1nn(C)c(N(C)C)c1CNCCCNS(C)(=O)=O	4.14
COc1ccc(S(=O)(=O)NC(=O)COC2CCCCC2)cc1C	-4.48
COc1cc(F)ccc1-c1ncccc1NC(=O)C(C)C	-7.03
